Reference: ChEMBL document CHEMBL5150037, “Synthesis and in vitro biological evaluation of 3-ethyl-1,5-naphthyridin-2(1H)-one derivatives as potent PARP-1 selective inhibitors and PARP-1 DNA trappers” (Bioorg Med Chem Lett, 2022)

Key:
[1] = target: T1, Poly [ADP-ribose] polymerase 1 (Homo sapiens, UniProt P09874); assay: Inhibition of PARP-1 (unknown origin)
[2] = target: T2, Poly [ADP-ribose] polymerase 2 (Homo sapiens, UniProt Q9UGN5); assay: Inhibition of PARP-2 (unknown origin)
[3] = target: T1, Poly [ADP-ribose] polymerase 1; assay: Inhibition of PARP-1 (unknown origin) binding to DNA assessed as DNA trapping activity
[4] = target: T2, Poly [ADP-ribose] polymerase 2; assay: Inhibition of PARP-2 (unknown origin) binding to DNA assessed as DNA trapping activity
DLD-1 [5] = assay: Antiproliferative activity against human DLD-1 cells harbouring BRCA-2 mutant assessed as inhibition of cell growth; assay type: functional, cell-based
DLD-1 [6] = assay: Antiproliferative activity against human DLD-1 cells harbouring wild type BRCA assessed as inhibition of cell growth; assay type: functional, cell-based

T1 sequence (P09874 whole entry): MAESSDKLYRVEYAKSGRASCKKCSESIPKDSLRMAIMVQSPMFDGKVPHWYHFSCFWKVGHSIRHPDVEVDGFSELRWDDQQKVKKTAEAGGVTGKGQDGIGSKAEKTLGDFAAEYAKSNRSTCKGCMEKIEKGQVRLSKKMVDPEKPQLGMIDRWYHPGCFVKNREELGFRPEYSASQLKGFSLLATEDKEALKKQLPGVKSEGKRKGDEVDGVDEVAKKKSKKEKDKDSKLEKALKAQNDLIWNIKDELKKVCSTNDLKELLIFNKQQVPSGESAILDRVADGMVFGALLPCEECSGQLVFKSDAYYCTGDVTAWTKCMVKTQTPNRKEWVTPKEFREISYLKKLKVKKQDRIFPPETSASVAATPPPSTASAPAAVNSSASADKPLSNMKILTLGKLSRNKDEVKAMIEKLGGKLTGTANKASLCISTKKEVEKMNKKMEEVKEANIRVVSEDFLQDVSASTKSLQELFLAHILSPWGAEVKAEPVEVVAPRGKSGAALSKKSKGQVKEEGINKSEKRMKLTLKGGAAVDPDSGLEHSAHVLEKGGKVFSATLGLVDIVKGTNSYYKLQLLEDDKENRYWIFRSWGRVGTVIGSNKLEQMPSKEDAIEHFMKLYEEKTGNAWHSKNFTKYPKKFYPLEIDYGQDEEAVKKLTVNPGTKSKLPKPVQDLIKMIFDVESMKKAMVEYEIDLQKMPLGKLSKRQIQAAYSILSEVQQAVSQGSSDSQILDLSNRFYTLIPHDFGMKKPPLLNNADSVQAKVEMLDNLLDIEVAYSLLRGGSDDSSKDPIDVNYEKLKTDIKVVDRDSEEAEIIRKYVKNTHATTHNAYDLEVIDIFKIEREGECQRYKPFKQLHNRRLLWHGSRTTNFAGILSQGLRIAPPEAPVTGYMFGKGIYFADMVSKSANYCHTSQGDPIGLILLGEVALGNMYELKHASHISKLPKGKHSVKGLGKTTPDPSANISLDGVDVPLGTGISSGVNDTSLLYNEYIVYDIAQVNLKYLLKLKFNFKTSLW
T2 sequence (Q9UGN5 whole entry): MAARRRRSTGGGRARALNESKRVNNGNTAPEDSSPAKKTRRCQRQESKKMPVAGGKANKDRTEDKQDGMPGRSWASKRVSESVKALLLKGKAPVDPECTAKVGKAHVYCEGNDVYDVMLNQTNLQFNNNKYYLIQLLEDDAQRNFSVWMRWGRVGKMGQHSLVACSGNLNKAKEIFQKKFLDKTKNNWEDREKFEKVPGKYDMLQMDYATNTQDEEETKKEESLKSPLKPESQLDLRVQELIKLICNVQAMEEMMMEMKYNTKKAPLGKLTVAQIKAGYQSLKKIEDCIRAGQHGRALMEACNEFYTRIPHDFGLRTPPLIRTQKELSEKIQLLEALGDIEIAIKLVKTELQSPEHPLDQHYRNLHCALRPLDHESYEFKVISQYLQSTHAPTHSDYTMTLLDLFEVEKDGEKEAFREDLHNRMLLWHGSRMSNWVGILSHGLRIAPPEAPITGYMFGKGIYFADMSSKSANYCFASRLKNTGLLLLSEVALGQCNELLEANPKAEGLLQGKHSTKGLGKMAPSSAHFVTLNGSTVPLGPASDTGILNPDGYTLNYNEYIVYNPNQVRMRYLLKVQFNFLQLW

Compound | IC50 [1] [nM] | IC50 [2] [nM] | IC50 [3] [nM] | IC50 [4] [nM] | IC50 (DLD-1 [5]) [nM] | IC50 (DLD-1 [6]) [µM]
CCc1cc2ncc(CN3CCc4nc(C(=O)NC)ccc4C3)cc2[nH]c1=O | 348 | 485 | > 2500 | 4040 | – | –
CCc1cc2ncc(CN3C[C@@H]4C[C@H]3CN4c3ccc(C(=O)NC)nc3)cc2[nH]c1=O | 40 | 340 | > 2500 | 37700 | – | –
CCc1cc2ncc(CN3CCN(c4ccc(C(C)(C)O)nc4)CC3)cc2[nH]c1=O | 397 | 450 | > 2500 | 14000 | – | –
CCc1cc2ncc(CN3CC4(CCN(c5ccc(C(=O)NC)nc5)CC4)C3)cc2[nH]c1=O | 12 | – | 158 | – | – | –
CCc1cc2ncc(CN3CCN(c4ccc5[nH]ncc5n4)CC3)cc2[nH]c1=O | 0.78 | 23 | 380 | 1170 | – | –
CCc1cc2ncc(CN3CCN(c4ccc5nc(C(F)(F)F)[nH]c5n4)CC3)cc2[nH]c1=O | 2.6 | 60 | 244 | 1400 | – | –
CCc1cc2ncc(CN3CCN(c4cc5cccc(C(=O)NC)c5cn4)CC3)cc2[nH]c1=O | 14 | 151 | 1570 | 2980 | – | –
CCc1cc2ncc(CN3CCN(c4cnc5cn[nH]c5c4)CC3)cc2[nH]c1=O | 0.9 | 5.2 | 231 | 210 | – | –
CCc1cc2ncc(CN3CC4CC(C3)N4c3ccc(C(=O)NC)nc3)cc2[nH]c1=O | > 2500 | – | > 2500 | – | – | –
CCc1cc2ncc(CN3CC[C@H](Nc4ccc(C(=O)NC)nc4)C3)cc2[nH]c1=O | 33 | 137 | 1460 | 4170 | > 2500 | 77.1
CCc1cc2ncc(CN3CCn4c(cnc4C(=O)NC)C3)cc2[nH]c1=O | 75 | 20 | > 2500 | 2040 | – | –
CCc1cc2ncc(CN3CCN(c4cc5c(cn4)NC(=O)CC5)CC3)cc2[nH]c1=O | 5.4 | 38 | 727 | 167 | – | –
CCc1cc2ncc(CN3CCC(Nc4ccc(C(=O)NC)nc4)CC3)cc2[nH]c1=O | 3.4 | 40 | 259 | 3050 | – | –
CCc1cc2ncc(CN3CC4CCC(C3)N4c3ccc(C(=O)NC)nc3)cc2[nH]c1=O | 41 | – | > 2500 | – | – | –
CCc1cc2ncc(CN3CCN(c4ccc(C(N)C(F)(F)F)nc4)CC3)cc2[nH]c1=O (stereo not drawn) | – | – | > 2500 | 11800 | – | –
O=C(c1cc(Cc2n[nH]c(=O)c3ccccc23)ccc1F)N1CCN(C(=O)C2CC2)CC1 [OLAPARIB] | – | – | – | – | 172 | 23.3
CCc1cc2ncc(CN3CCN(c4ccc(C(=O)NC)nc4)CC3)cc2[nH]c1=O [SARUPARIB] | – | – | – | – | 0.915 | 12.1

Now from value to compound:

IC50 [1] [nM] | IC50 [2] [nM] | IC50 [3] [nM] | IC50 [4] [nM] | IC50 (DLD-1 [5]) [nM] | IC50 (DLD-1 [6]) [µM] | Compound
2.6 | 192 | 4.76 | 12000 | 25.6 | 89.2 | CCc1cc2ncc(CN3CC(Nc4ccc(C(=O)NC)nc4)C3)cc2[nH]c1=O
0.41 | – | 4.78 | – | 395 | 15.7 | CCc1cc2ncc(CN3CCN(c4ccc5cn[nH]c5n4)CC3)cc2[nH]c1=O
0.94 | 68 | 1.61 | 9440 | 43.8 | 102 | CCc1cc2ncc(CN3CCC(Nc4ccc(C(=O)NC)nc4)C3)cc2[nH]c1=O (stereo not drawn)
0.63 | 982 | 3.58 | 1560 | 161 | 8.7 | CCc1cc2ncc(CN3CCN(c4ccc(C(=O)NC)c5nccn45)CC3)cc2[nH]c1=O
0.49 | 133 | 1.85 | 3010 | 4.82 | 43.8 | CCc1cc2ncc(CN3CC[C@@H](Nc4ccc(C(=O)NC)nc4)C3)cc2[nH]c1=O
0.34 | 18 | 8.14 | 678 | 46.8 | 2.98 | CCc1cc2ncc(CN3CC4CN(c5ccc(C(=O)NC)nc5)CC4C3)cc2[nH]c1=O (stereo not drawn)
1 | 154 | 4.51 | 6300 | 66 | 15.2 | CCc1cc2ncc(CN3CCN(c4ccc(OC(F)F)nc4)CC3)cc2[nH]c1=O
0.59 | 9 | 2.97 | 839 | 164 | 28.1 | CCc1cc2ncc(CN3CC4(C3)CN(c3ccc(C(=O)NC)nc3)C4)cc2[nH]c1=O
2 | 87 | 10.4 | 994 | – | – | CCc1cc2ncc(CN3CCN(c4ccc5oc(=O)[nH]c5c4)CC3)cc2[nH]c1=O
1.3 | 21 | 64 | 114 | – | – | CCc1cc2ncc(CN3CCN(c4ccc5cc[nH]c5n4)CC3)cc2[nH]c1=O
0.4 | 41.5 | 11.2 | 1160 | 10.8 | 33 | CCc1cc2ncc(CN3CCc4cc(/C=C/C(=O)NC)ccc4C3)cc2[nH]c1=O
